Measured values taken from EP0979831B1, “Antibacterial peptides and antibacterial agents containing such peptides as an effective ingredient” (National Institute of Agrobiological Sciences, priority 1998, dated 2003).
Converted amounts (≈) assume the structure as drawn. Residues, ends and D or L forms follow the SMILES beside them.

Tested on: Escherichia coli
Format: cell-based
Description: Minimum Inhibitory Concentration (MIC) of these antibacterial peptides (1) to (5) against Staphylococcus aureus, methicillin resistant Staphylococcus aureus (MRSA), Escherichia coli and Pseudomonas aeruginosa was determined.

CC[C@H](C)[C@H](NC(=O)[C@H](C)NC(=O)[C@H](CC(C)C)NC(=O)[C@H](Cc1ccc(O)cc1)NC(=O)[C@H](CC(C)C)NC(=O)[C@H](C)N)C(=O)N[C@@H](CCCNC(=N)N)C(=O)N[C@@H](CCCCN)C(=O)N[C@@H](CCCNC(=N)N)C(N)=O [present peptide (4), Ala Leu Trp Leu Ala Ile Arg Lys Arg]
MIC E coli: 4 µg/mL (≈ 3.63 µM)

CC[C@H](C)[C@H](NC(=O)[C@H](C)NC(=O)[C@H](CC(C)C)NC(=O)[C@H](CCCNC(=N)N)NC(=O)[C@H](CC(C)C)NC(=O)[C@H](C)N)C(=O)N[C@@H](CCCNC(=N)N)C(=O)N[C@@H](CCCCN)C(=O)N[C@@H](CCCNC(=N)N)C(N)=O [present peptide (1), Ala Leu Arg Leu Ala Ile Arg Lys Arg] (H-ALRLAIRKR-NH2)
MIC E coli: 4 µg/mL (≈ 3.65 µM)

CC[C@H](C)[C@H](NC(=O)[C@H](C)NC(=O)[C@H](CC(C)C)NC(=O)[C@H](Cc1c[nH]c2ccccc12)NC(=O)[C@H](CC(C)C)NC(=O)[C@H](C)N)C(=O)N[C@@H](CCCNC(=N)N)C(=O)N[C@@H](CCCCN)C(=O)N[C@@H](CCCNC(=N)N)C(N)=O [present peptide (5), Ala Leu Trp Leu Ala Ile Arg Lys Arg] (H-ALWLAIRKR-NH2)
MIC E coli: 10 µg/mL (≈ 8.89 µM)

CC[C@H](C)[C@H](NC(=O)[C@H](C)NC(=O)[C@H](CC(C)C)NC(=O)[C@H](CC(C)C)NC(=O)[C@H](CC(C)C)NC(=O)[C@H](C)N)C(=O)N[C@@H](CCCNC(=N)N)C(=O)N[C@@H](CCCCN)C(=O)N[C@@H](CCCNC(=N)N)C(N)=O [present peptide (2), Ala Leu Leu Leu Ala Ile Arg Lys Arg] (H-ALLLAIRKR-NH2)
MIC E coli: 6 µg/mL (≈ 5.7 µM)

CC[C@H](C)[C@H](NC(=O)[C@H](C)NC(=O)[C@H](CC(C)C)NC(=O)[C@H](CC(C)C)NC(=O)[C@H](Cc1c[nH]c2ccccc12)NC(=O)[C@H](C)N)C(=O)N[C@@H](CCCNC(=N)N)C(=O)N[C@@H](CCCCN)C(=O)N[C@@H](CCCNC(=N)N)C(N)=O [present peptide (3), Ala Trp Leu Leu Ala Ile Arg Lys Arg] (H-AWLLAIRKR-NH2)
MIC E coli: 5 µg/mL (≈ 4.44 µM)
